This assay addresses D(1A) dopamine receptor (Rattus norvegicus, UniProt P18901).

Structures are written as SMILES. Where a name gives a salt, the structure may show the parent alone. Bounds are passed on as bounds.

D(1A) dopamine receptor, sequence (P18901 whole entry): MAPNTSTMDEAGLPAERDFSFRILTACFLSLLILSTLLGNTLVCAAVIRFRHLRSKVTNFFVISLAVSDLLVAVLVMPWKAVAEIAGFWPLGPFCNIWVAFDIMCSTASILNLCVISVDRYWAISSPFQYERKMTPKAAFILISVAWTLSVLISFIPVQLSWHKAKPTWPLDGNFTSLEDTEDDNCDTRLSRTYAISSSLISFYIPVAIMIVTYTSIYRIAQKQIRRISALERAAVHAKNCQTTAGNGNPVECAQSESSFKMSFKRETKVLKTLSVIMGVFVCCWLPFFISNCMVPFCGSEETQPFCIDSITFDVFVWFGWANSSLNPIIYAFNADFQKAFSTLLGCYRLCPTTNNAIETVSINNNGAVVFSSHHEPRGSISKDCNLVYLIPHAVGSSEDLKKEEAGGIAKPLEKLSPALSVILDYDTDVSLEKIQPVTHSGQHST

The compound `O=c1[nH]c2ccccc2n1CCCN1CCC(n2c(=O)[nH]c3cc(Cl)ccc32)CC1` gave an inhibitory constant (Ki) greater than 10 µM.

Consider `NC1CCc2cc(O)c(O)cc2C1` (stereo not given), for which the Ki is 5.12 µM.

`O=c1[nH]c2ccccc2n1C1CCN(CCCC(c2ccc(F)cc2)c2ccc(F)cc2)CC1` [1-(1-(4,4-bis(4-fluorophenyl)butyl)piperidin-4-yl)-1H-benzo[d]imidazol-2(3H)-one] had a Ki of 1.42 µM.

`OCCN1CCN(CCCN2c3ccccc3Sc3ccc(C(F)(F)F)cc32)CC1` [2-[4-[3-[2-(trifluoromethyl)phenothiazin-10-yl]propyl]piperazin-1-yl]ethanol;hydrochloride] gave a Ki of 0.0045 µM.

In turn, `O=C(c1ccc(F)cc1)C1CCN(CCn2c(=O)[nH]c3ccccc3c2=O)CC1` [3-(2-{4-[(4-fluorophenyl)carbonyl]piperidin-1-yl}ethyl)-1,2,3,4-tetrahydroquinazoline-2,4-dione] came in with a Ki of 0.2 µM.

Take `OCCN1CCN(CCCN2c3ccccc3Sc3ccc(Cl)cc32)CC1` [4-[3-(2-chlorophenothiazin-10-yl)propyl]-1-piperazineethanol]: affinity was put at a Ki of 0.044 µM.

Compound `CN1CCN(CC/C=C2/c3ccccc3Sc3ccc(S(=O)(=O)N(C)C)cc32)CC1` [MLS000028463] returned a Ki of 1.52 µM.

As for `CC(CN1c2ccccc2Sc2ccccc21)N(C)C` (stereo not drawn) [N,N,alpha-trimethyl-10H-phenothiazine-10-ethanamine], the Ki is 1.78 µM.

`NCCc1c[nH]c2ccc(O)cc12` [[3H]-5-HT]: the Ki stood at 5 µM.

The compound `c1ccc2c(c1)Nc1ccccc1S2` [phenothiazine] gave a Ki greater than 10 µM.
